IC50 and AC50 data for seven compounds are collected here from ChEMBL document CHEMBL1201862, “PubChem BioAssay data set” (2004).

Molecules are shown by their SMILES. Active and inactive are the calls of the source.

A short description of experiment [1]: HEK-293T cell viability reduction – luminescence, B-cell screen hits, cytotoxicity control for BCR NF-kB inhibitor project, dose response (AID 489021).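 Also: HEK-293T cells carrying an NF-kB luciferase reporter; cells exposed to compound for about 14 hours before viability readout.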 Type of experiment: functional, cell-based.
The next experiment concerns the target Protein Wnt-3a (Mus musculus, UniProt P27467). In words: antagonism of Wnt3a pathway luciferase reporter – Wnt-LIGHT cells, luminescence, selectivity assay for Gli-SUFU antagonist project, dose response (AID 651570).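 Also: Wnt-LIGHT reporter cells stimulated with conditioned medium from Wnt3a-producing cells.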 The conditions noted are these: read-out: IC50_Mean. Type of experiment: functional.
The next experiment has as its target Paired box protein Pax-8 (Homo sapiens, UniProt Q06710). The experiment is described as follows: PAX8 transcriptional activity inhibition in RMG-I – RMG-I cells, luciferase, cherry-pick, dose response (AID 687027).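 Also: luciferase reporter driven by Pax8 target thyroperoxidase promoter measured by SteadyGlo luminescence.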 It is filed as functional, cell-based.
In a further experiment the test system is INS1. The experiment is described as follows: INS-1E survival protection against cytokine death – cell-based, luminescence, retest, dose response (AID 449756).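 Also: cell death triggered by IL-1 beta plus TNF-alpha plus IFN-gamma mixture; protective hits raise ATP signal compared with cytokine alone wells.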 It is filed as functional. The conditions noted are these: Rattus norvegicus.
Experiment [2] in a line: reduction of Shn3 3'UTR-driven luciferase in osteoblasts – cell-based, Clone20 osteoblasts, firefly luciferase, cherry-picked, dose response (AID 624132).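 Also: firefly luciferase luminescence from reporter carrying the Shn3 3'UTR in osteoblasts.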 It is filed as functional.
Experiment [3] is described as follows: non-specific 3'UTR reporter inhibition in Clone20-Shn3RL – cell-based, Renilla luciferase, cherry-picked, counter-screen for Shn3 inhibitor project, dose response (AID 624133). Type of experiment: functional.
The nature of experiment [4]: loss of viability in HepG2 cells – cell-based, CellTiter-Glo, cherry-picked, cytotoxicity control for Shn3 inhibitor project, dose response (AID 624134). It is filed as functional.
Experiment [5] addresses Photoreceptor-specific nuclear receptor (Homo sapiens, UniProt Q9Y5X4). It is filed as functional, cell-based.
A short description of experiment [6]: intracellular Trypanosoma cruzi inhibitors in host cells – cell-based, plate reader, cherry-pick samples, set 3, dose response (AID 651818).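 Also: compounds incubated with infected cells for about four days.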 Type of experiment: functional.

Protein Wnt-3a, sequence (P27467 whole entry): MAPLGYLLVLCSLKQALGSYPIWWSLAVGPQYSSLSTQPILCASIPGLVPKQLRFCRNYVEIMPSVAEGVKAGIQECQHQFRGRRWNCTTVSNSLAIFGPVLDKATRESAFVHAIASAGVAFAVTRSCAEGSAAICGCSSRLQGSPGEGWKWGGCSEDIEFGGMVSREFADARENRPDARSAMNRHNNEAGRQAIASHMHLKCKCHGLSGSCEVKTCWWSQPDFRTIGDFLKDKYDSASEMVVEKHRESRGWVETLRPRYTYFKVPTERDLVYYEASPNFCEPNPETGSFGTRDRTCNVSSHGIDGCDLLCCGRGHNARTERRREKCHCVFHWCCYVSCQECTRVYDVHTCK
Paired box protein Pax-8, sequence (Q06710 whole entry): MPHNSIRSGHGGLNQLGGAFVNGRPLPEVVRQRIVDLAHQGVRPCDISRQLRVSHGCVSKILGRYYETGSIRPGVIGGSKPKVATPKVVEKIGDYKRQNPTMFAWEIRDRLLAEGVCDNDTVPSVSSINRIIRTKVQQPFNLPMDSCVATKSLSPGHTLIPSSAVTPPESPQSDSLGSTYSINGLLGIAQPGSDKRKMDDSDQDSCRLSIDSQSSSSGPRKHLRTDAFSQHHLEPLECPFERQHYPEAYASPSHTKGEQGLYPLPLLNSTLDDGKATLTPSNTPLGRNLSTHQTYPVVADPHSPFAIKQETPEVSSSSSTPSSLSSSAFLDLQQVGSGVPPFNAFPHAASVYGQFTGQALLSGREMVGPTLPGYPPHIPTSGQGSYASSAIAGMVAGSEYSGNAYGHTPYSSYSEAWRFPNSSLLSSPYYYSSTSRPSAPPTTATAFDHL
Photoreceptor-specific nuclear receptor, sequence (Q9Y5X4 whole entry): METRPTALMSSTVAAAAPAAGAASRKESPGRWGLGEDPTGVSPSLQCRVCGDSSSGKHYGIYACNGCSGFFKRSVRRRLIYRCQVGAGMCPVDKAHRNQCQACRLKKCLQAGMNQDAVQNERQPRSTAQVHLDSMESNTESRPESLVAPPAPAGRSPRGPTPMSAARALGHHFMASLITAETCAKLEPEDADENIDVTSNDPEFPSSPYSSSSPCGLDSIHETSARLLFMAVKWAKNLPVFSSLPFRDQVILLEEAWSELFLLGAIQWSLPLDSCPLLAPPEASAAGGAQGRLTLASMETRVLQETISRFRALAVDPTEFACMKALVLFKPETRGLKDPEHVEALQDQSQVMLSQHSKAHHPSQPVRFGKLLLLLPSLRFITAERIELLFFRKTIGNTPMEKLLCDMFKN

For `CCN(CC(=O)Nc1c(F)cccc1F)C(=O)c1cc(S(=O)(=O)N(CC)CC)ccc1N1CCCCC1`, the IC50 in experiment [1] is > 80 µM (inactive); on Protein Wnt-3a, 11.4 µM (active). In addition, on Paired box protein Pax-8, the AC50 was 3.02 µM (active).

In the case of `CC1Cc2cc(S(=O)(=O)N3CCC(C(=O)N4CCN(c5ccccc5F)CC4)CC3)ccc2N1C(=O)C1CC1` (stereo not given), the figures for the AC50 (in the experiment with INS1; in experiment [2]; in experiment [3]) were 5.34 µM (active), 1.65 µM (active) and 4.74 µM (active), respectively. Further, the IC50 at Protein Wnt-3a was 5.83 µM (active).

`O=C(C(=Cc1ccccc1)CN1CCCCC1)c1ccccc1`: the AC50 was 3.18 µM (active) in [2], 8.28 µM (active) in experiment [4] and 5.08 µM (active) in [3]. In experiment [5], the IC50 is 3.73 µM (active).

Take `C[C@@H]1CN([C@H](C)CO)C(=O)c2cccc(NC(=O)Nc3ccc(C(F)(F)F)cc3)c2O[C@@H]1CN(C)S(=O)(=O)c1ccc(Cl)cc1`: the half-maximal activity concentration (AC50) in experiment [6] was 3.52 µM (active).

For the compound `Cc1ccc(S(=O)(=O)Nc2cccc3c2O[C@@H](CN(C)Cc2ccc(C(=O)Nc4ccccc4N)cc2)[C@H](C)CN([C@H](C)CO)C3=O)cc1`, in [6], the half-maximal activity concentration (AC50) is 3.87 µM (active).

As for `C[C@H](CO)N1C[C@H](C)[C@H](CN(C)Cc2ccc(Cl)c(Cl)c2)Oc2ccc(NC(=O)Nc3ccc(C(F)(F)F)cc3)cc2C1=O`, the AC50 in experiment [6] is 3.24 µM (active).

With `COc1ccc(NC(=O)Nc2ccc3c(c2)CC(=O)N([C@H](C)CO)C[C@@H](C)[C@@H](CN(C)Cc2ccc(Cl)c(Cl)c2)O3)cc1`, in [6], the AC50 is 3.35 µM (active).
